Like-named read-outs stand apart in the source and are kept apart here.
Key:
CYP3A4 = molecular target: T1, CYP3A4 (Homo sapiens, UniProt P08684); assay: Direct inhibition test (DI test) in human liver microsomes, CYP3A4; format: in vitro ADME; settings: read-out: inhibitory IC50 on CYP 3A4
T1 construct: human liver microsomes (final concentration was 0.2 mg/mL); from tissue; host or cells: human liver microsomes
Protocol: (2) Direct inhibition test (DI test): 1004 of human liver microsomes (final concentration was 0.2 mg/mL) system was subjected to inhibition incubation directly, the system contains NADPH (final concentration was 1 mM), 10 μM compound, positive inhibitor cocktail (ketoconazole 10 μM, quinidine 10 μM, sulfapyrazole 100 μM, a-naphthoflavone 10 μM, tranylcypromine […]), negative control (0.1% DMSO BPS) and mixed probe substrate (midazolam 1004, testosterone 10004, dextromethorphan 10 μM, diclofenac 20 μM, phenacetin 100 μM, mephenytoin 100 μM), the reaction was terminated after incubation for 20 min. The relative enzyme activity was calculated by measuring the relative production of metabolites.

BRD4-BD2 = molecular target: T2, BRD4-BD2 (Homo sapiens, UniProt O60885); assay: BRD4 AlphaScreen determination (BD2); format: binding
T2 construct: purchased ReactionBiologyCorp; (RBC)
Protocol: (§1) (1) 1× Assay buffer was prepared according to the kit requirements of ReactionBiologyCorp. (RBC). (2) Compound concentration gradient preparation: the test compounds were tested at final concentrations starting at 10 μM, with 10 concentrations at 3-fold dilution and single well test was set for each concentration. The positive control compound(+)-JQ-1 was tested at final concentrations starting at 1 μM, with 10 concentrations at 3-fold dilution, and duplicated well test was set for each concentration. The solution was gradient diluted to the corresponding 1000-fold final concentration in a 384-well Source plate, and then 20 nL of the solution was transferred to the 384-well reaction plate with Echo550 to be measured. 20 nL of 100% DMSO was transferred to the Max well, and the highest concentration of the positive compounds were transferred to the Min wells. […] (6) 5 μL of 4× peptide solution was added to each well of the reaction plate, centrifuged at 1000 rpm for 1 min. (7) 10 μL of the assay solution was added, centrifuged at 1000 rpm for 60 seconds, the solution was mixed with gentle shaking, and incubated at room temperature for 60 minutes. (8) Reading with EnVision. (9) The IC50 values of the compounds for protein binding inhibition was obtained by fitting the dose-effect curve with the analytical software GraphPad Prism 5. (See Table 1 for specific values)

[1] = In vivo pharmacokinetics in mice; settings: male, Balb c, mouse, plasma, po, 5 mg/kg; for AUC / Cmax / half-life: gavage
Protocol: Six male SPF-grade SD rats or Balb c mice (Shanghai B&K laboratory animals) were divided into two groups and the test compounds were configured into suitable solutions or suspensions; one group was administered intravenously and one group was administered orally. Blood was collected by jugular vein puncture, and each sample was collected about 0.2 mL/time point, heparin sodium was used for anticoagulation, the blood collection time points were as follows: before administration and 5, 15 and 30 minutes, 1, 2, 4, 6, 8 and 24 h after administration, the blood sample was collected and placed on ice, centrifuged to separate the plasma (centrifugation conditions: 8000 rpm, 6 minutes, 2-8° C.), and the collected plasma was stored at −80° C. before analysis. The plasma samples were analyzed by LC-MS/MS.
According to the blood drug concentration data of the drug, the pharmacokinetic calculation software WinNonlin5.2 non-compartmental model was used to calculate the pharmacokinetic parameters AUC0-t, AUC0-∞, MRT0-∞, Cmax, Tmax, T1/2 and Vd and other parameters and their mean and standard deviation. In addition, the bioavailability (F) was calculated by the following formula.
For samples with a concentration lower than the lower limit of quantification, when calculating the pharmacokinetic parameters, the samples sampled before reaching Cmax should be calculated as zero, and samples sampled after reaching Cmax should be calculated as unquantifiable (BLQ).

BRD4-BD1 = molecular target: T3, BRD4-BD1 (Homo sapiens, UniProt O60885); assay: BRD4 AlphaScreen determination (BD1); format: binding
T3 construct: purchased ReactionBiologyCorp; (RBC)
Protocol: as §1

[2] = test system: LNCAP, SKM-1, MOLM13, KASUMI 1, THP-1, KG-1; assay: Proliferation inhibition of different cell lines: most sensitive lines; format: cell-based; settings: some cell lines such as LNCAP, read-out: proliferation inhibitory activity IC50
Protocol: (§2) The proliferation inhibitory activity of some of the embodiment compounds against different cell lines such as LNCAP (+R1881), SKM-1, 22RV1, DU145, MOLM13, MDA-PCA-2b, KASUMI 1, THP-1, KG-1, IEC6, H1299, etc., was tested using similar methods in test embodiment 2 and in the literature.

MV4-11 cells = assay: Inhibition of proliferation of MV4-11 cells (CellTiter-Glo); format: cell-based; settings: Homo sapiens, 72 h
Protocol: Specific experimental steps: 1) Day 0: 96 inoculated cells were digested with trypsin and suspended in cell culture medium, the cell density was detected by an automatic cell counter and the cells were diluted with the culture medium to a suitable density, 100 μL of cell suspension was added to the 96-well plate, and the cell-free medium was used as a control well, and the wells were incubated in a 37° C., 5% CO2 cell incubator overnight; 2) Day 1: A total of 8 concentrations of the compound to be tested in the drug-treated cells were tested at 3-fold dilution, 10 μM was the starting assay concentration of the compound to be tested. Specific steps: 200× compound mother liquor was prepared, the compound was diluted with culture medium to a final concentration of […], that is, 3 μL of 200× compound was added to 197 μL of culture medium, 50 μL diluted compound was added to each well of the 96-well plate, and placed at 37° C., 5% CO2 cell culture incubator for 72 h; 3) Day 4: Cell viability detection: 96-well cell plate was first equilibrated to room temperature, 40 μL of CellTiter-Glo® reagent was added to each well, mixed on a shaker for 2 minutes to fully lyse the cells, incubated at room temperature for 10 minutes to stabilize the luminescence signal, and the luminescence value was read by the Envision microplate reader; 4) data processing was performed by GraphPad Prism 5.0 software to analyze the data, and nonlinear S-curve regression was used to fit the data to obtain a dose-effect curve, and from which the ICso value was calculated. Inhibition rate %=(DMSO treated cell wells−compound treated cell wells)/(DMSO treated cell wells−cell free medium wells)×100. The ICso value was obtained by the four-parameter regression method using the random software in the microplate reader. (See Table 2 for specific values)

IEC6 = assay: Proliferation inhibition of IEC6 cells; format: cell-based; settings: Rattus norvegicus, IEC-6; IEC6 cell line; read-out: proliferation inhibitory activity IC50
Protocol: as §2

H1299 = assay: Proliferation inhibition of H1299 cells; format: cell-based; settings: Homo sapiens, NCI-H1299; H1299 cell line; read-out: proliferation inhibitory activity IC50
Protocol: as §2

T1 sequence (P08684 whole entry): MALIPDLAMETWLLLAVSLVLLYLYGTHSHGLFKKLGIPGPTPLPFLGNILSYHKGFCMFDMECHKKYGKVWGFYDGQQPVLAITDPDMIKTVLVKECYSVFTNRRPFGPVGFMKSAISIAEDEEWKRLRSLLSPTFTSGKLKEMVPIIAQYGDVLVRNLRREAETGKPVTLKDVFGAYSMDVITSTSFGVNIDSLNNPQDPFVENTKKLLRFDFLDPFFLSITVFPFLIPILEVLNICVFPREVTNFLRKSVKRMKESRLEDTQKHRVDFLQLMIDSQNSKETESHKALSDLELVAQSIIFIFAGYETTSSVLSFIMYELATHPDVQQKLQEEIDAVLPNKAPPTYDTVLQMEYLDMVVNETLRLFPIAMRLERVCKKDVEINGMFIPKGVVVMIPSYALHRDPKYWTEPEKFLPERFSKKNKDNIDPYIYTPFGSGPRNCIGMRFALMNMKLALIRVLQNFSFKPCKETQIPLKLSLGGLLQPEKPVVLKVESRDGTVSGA

Molecule Cc1cc(F)cc(C)c1Oc1ccc(C(C)(C)O)cc1-c1cn(C)c(=O)c2cc(C(=O)NC3CC(F)(F)C3)[nH]c12 [Embodiment 18, N-(3,3-difluorocyclobutyl)-7-(2-(4-fluoro-2,6-dimethylphenoxy)-5-(2-hydroxyprop-2-yl)phenyl)-5-methyl-4-oxo-4,5-dihydro-1H-pyrrolo[3,2-c] pyridine-2-amide] has an IC50 (CYP3A4) greater than 15000 nM, an IC50 (BRD4-BD2; AlphaScreen, protein binding inhibition, read-out: BRD4-BD2 IC50) of less than 0.5 nM and a bioavailability [1] greater than 40%. It also gave an AUC [1] greater than 5 µM·h, a Cmax [1] greater than 1500 nM and a half-life [1] greater than 3 h. For the same molecule, the IC50 (BRD4-BD1; AlphaScreen, protein binding inhibition, read-out: BRD4-BD1 IC50) was 117 nM, the IC50 [2] was less than 100 nM and the IC50 (MV4-11 cells) was 10.6 nM. The IC50 (IEC6) was greater than 1000 nM and the IC50 (H1299) was greater than 1000 nM.
CCNC(=O)c1cc2c(=O)n(C)cc(-c3cc(C(C)(C)O)ccc3Oc3c(C)cc(F)cc3C)c2[nH]1 [compound 1, reference compound] gave an IC50 (CYP3A4) greater than 15000 nM, an IC50 (BRD4-BD2) of 0.65 nM and a bioavailability [1] greater than 40%. The AUC [1] was greater than 5 µM·h, the Cmax [1] was greater than 1500 nM and the half-life [1] was greater than 3 h. For the same molecule, the IC50 (BRD4-BD1) was 40 nM, the IC50 [2] was less than 100 nM and the IC50 (MV4-11 cells) was 2.3 nM. For the same molecule, the IC50 (IEC6) was greater than 1000 nM and the IC50 (H1299) was greater than 1000 nM.
